Drawing on PubChem BioAssay (NCI), this text covers TGI and GI50 for eight compounds.

Among the test systems are HCT-15 colon; 786-0 renal; K-562 leukemia; U251 CNS; HOP-92 NSCLC; RXF 393 renal; A498 renal; MOLT-4 leukemia; SK-MEL-2 melanoma; SNB-19 CNS; CAKI-1 renal; UACC-62 melanoma; NCI/ADR-RES ovarian; IGROV1 ovarian; SN12C renal; DU-145 prostate; PC-3 prostate; SNB-75 CNS.
Experiment in all cases: NCI-60 cell line screen, 48 h

SMILES strings stand for the structures.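 All cell lines were grown in 96-well plates and treated with compound for 48 hours. Here, GI50 denotes the concentration required for 50% inhibition of growth. At the TGI there is no net growth.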

On to `O[C@@H]1[C@H](OC2c3ccccc3-c3ccccc32)[C@H](OCc2ccccc2)[C@@H]2OC[C@H]1O2`, for which the TGI with HCT-15 colon is above 100 µM; with 786-0 renal it was 42.1 µM; in the experiment with K-562 leukemia, above 100 µM; with U251 CNS, above 100 µM; with HOP-92 NSCLC, above 100 µM; with RXF 393 renal, above 100 µM. Besides, the TGI in the experiment with A498 renal, with MOLT-4 leukemia, in the experiment on SK-MEL-2 melanoma, in the experiment on SNB-19 CNS, in the experiment on CAKI-1 renal and in the experiment on UACC-62 melanoma was above 100 µM throughout. Moreover, the TGI in the experiment with NCI/ADR-RES ovarian, in the experiment on IGROV1 ovarian, in the experiment with SN12C renal, in the experiment on DU-145 prostate and in the experiment on PC-3 prostate was above 100 µM throughout.

For the compound `CC[C@@H]1CC[C@@H]2[C@H](CC[C@]3(C)[C@@H](O[N+](=O)[O-])CC[C@@H]23)[C@H]1C(C)=O`, the TGI with HCT-15 colon is above 100 µM; in the experiment on 786-0 renal, above 100 µM; in the experiment on K-562 leukemia, above 100 µM; in the experiment with U251 CNS it was above 100 µM; in the experiment on HOP-92 NSCLC, 70.2 µM; in the experiment on RXF 393 renal, above 100 µM. For the same compound, the TGI with A498 renal is 95.9 µM; with MOLT-4 leukemia, above 100 µM; with SNB-19 CNS, above 100 µM; in the experiment with CAKI-1 renal, above 100 µM; in the experiment with NCI/ADR-RES ovarian, above 100 µM; in the experiment with SNB-75 CNS, above 100 µM. The TGI in the experiment with IGROV1 ovarian was above 100 µM; with SN12C renal it was above 100 µM; with DU-145 prostate, above 100 µM; in the experiment on PC-3 prostate, 74.9 µM.

Take `Cc1cnc2[nH]c(-c3cccc4ccccc34)cc(=O)c2c1`: the TGI with HCT-15 colon is 0.935 µM; with 786-0 renal it was above 100 µM; in the experiment on K-562 leukemia it was above 100 µM; in the experiment with U251 CNS, 0.0129 µM; in the experiment on HOP-92 NSCLC it was 33.5 µM; with RXF 393 renal it was 0.0923 µM. The TGI was 0.00286 µM with A498 renal; above 100 µM in the experiment on MOLT-4 leukemia; above 100 µM with SK-MEL-2 melanoma; above 100 µM with SNB-19 CNS; above 100 µM in the experiment with CAKI-1 renal; above 100 µM in the experiment with UACC-62 melanoma. Also, the TGI is above 100 µM in the experiment with NCI/ADR-RES ovarian; 43.5 µM in the experiment with IGROV1 ovarian; above 100 µM in the experiment with SN12C renal; above 100 µM in the experiment on DU-145 prostate; above 100 µM in the experiment on PC-3 prostate. In addition, the GI50 is 0.0464 µM in the experiment on HOP-92 NSCLC and 0.042 µM in the experiment with SN12C renal.

As for `Cc1nc2ccc(S(=O)(=O)O)cc2c(=O)n1-c1ccc(C(=O)NN2C(=O)C(Cl)C2c2cccs2)cc1` (configuration not stated), the TGI in the experiment on HCT-15 colon, in the experiment on 786-0 renal, in the experiment with K-562 leukemia, in the experiment with U251 CNS, in the experiment on HOP-92 NSCLC and with RXF 393 renal was above 100 µM throughout. The TGI with A498 renal was above 100 µM; in the experiment with MOLT-4 leukemia it was above 100 µM; in the experiment on SK-MEL-2 melanoma, 54.1 µM; in the experiment on SNB-19 CNS, above 100 µM; in the experiment with CAKI-1 renal, above 100 µM; in the experiment on UACC-62 melanoma, above 100 µM. In addition, the TGI with NCI/ADR-RES ovarian, with SNB-75 CNS, with SN12C renal, in the experiment with DU-145 prostate and with PC-3 prostate was above 100 µM in each case.

On to `CC1C(OS(=O)(=O)c2ccc3[nH]c(=S)sc3c2)CC2C3(C)CCC2(C(C)C(=O)O)C(O)C13` (configuration not stated), for which the TGI with HCT-15 colon was 27.1 µM; in the experiment on 786-0 renal, 56.8 µM; in the experiment on K-562 leukemia it was above 100 µM; with U251 CNS, 38.6 µM; in the experiment with HOP-92 NSCLC, above 100 µM; in the experiment on RXF 393 renal it was 61.2 µM. Besides, the TGI in the experiment on A498 renal was above 100 µM; in the experiment on MOLT-4 leukemia it was above 100 µM; with SK-MEL-2 melanoma, 81.7 µM; in the experiment on SNB-19 CNS, above 100 µM; in the experiment on CAKI-1 renal, 64.3 µM; in the experiment with UACC-62 melanoma, 63.3 µM. Further, the TGI with NCI/ADR-RES ovarian is above 100 µM; in the experiment with IGROV1 ovarian, 35.8 µM; in the experiment on SN12C renal it was above 100 µM; in the experiment on DU-145 prostate it was 40.4 µM; in the experiment on PC-3 prostate, above 100 µM.

For the compound `CC1=C(C(=O)NNC(=O)C[N+](C)(C)C)CC(C(=O)NNC(=O)C[N+](C)(C)C)=C(C)N1`, the TGI in the experiment on HCT-15 colon, in the experiment with 786-0 renal, in the experiment on K-562 leukemia, with U251 CNS, in the experiment on HOP-92 NSCLC and in the experiment with RXF 393 renal was above 100 µM each time. For the same compound, the TGI in the experiment with A498 renal, in the experiment with MOLT-4 leukemia, with SK-MEL-2 melanoma, with SNB-19 CNS, with CAKI-1 renal and in the experiment with UACC-62 melanoma was above 100 µM each time. Moreover, the TGI in the experiment on NCI/ADR-RES ovarian, with IGROV1 ovarian, in the experiment with SN12C renal, in the experiment on DU-145 prostate and with PC-3 prostate was above 100 µM throughout.

In the case of `O=C(NC1CCCCC1)c1n[nH]nc1Cl`, the TGI in the experiment on HCT-15 colon, with 786-0 renal, in the experiment with K-562 leukemia, in the experiment with U251 CNS, in the experiment on HOP-92 NSCLC and with RXF 393 renal was above 100 µM each time. The TGI with A498 renal, in the experiment on MOLT-4 leukemia, in the experiment on SK-MEL-2 melanoma, in the experiment on SNB-19 CNS, in the experiment with CAKI-1 renal and in the experiment with UACC-62 melanoma was above 100 µM throughout. Besides, the TGI with NCI/ADR-RES ovarian, in the experiment with IGROV1 ovarian, in the experiment with SN12C renal, with DU-145 prostate and with PC-3 prostate was above 100 µM throughout.

With `CN(Cc1cccc2ccsc12)/N=C\c1ccc(Cl)cc1`, the TGI with HCT-15 colon, with 786-0 renal, with K-562 leukemia, in the experiment on U251 CNS, with HOP-92 NSCLC and in the experiment with RXF 393 renal was above 100 µM in each case. The TGI in the experiment on A498 renal, in the experiment with MOLT-4 leukemia, with SNB-19 CNS, with CAKI-1 renal, in the experiment on UACC-62 melanoma and in the experiment with NCI/ADR-RES ovarian was above 100 µM each time. Also, the TGI in the experiment on SNB-75 CNS, with IGROV1 ovarian, in the experiment with SN12C renal, with DU-145 prostate and in the experiment with PC-3 prostate was above 100 µM throughout.
